Values joined by “and” are separate entries in the source; they are usually repeats but may differ in a detail not shown here. Equal values may be shown once.
Experiments:
[1] = test system: MV/FrankfurtMain.DEU/17.11 (genotype D8); assay: Neutralizing antibody titers in serum; assay type: in vivo, squirrel monkeys (Saimiri sciureus); conditions: lower limit of detection = 10
Description: White blood cell counts, viral load quantification in PBMCs, and quantification of neutralizing antibody titers were performed as follows: for white blood cell counts, blood was diluted 1:100 in 3% acetic acid and cells were counted using a Neubauer chamber. For viral load quantification in PBMCs, blood was centrifuged at 3000 rpm for 15 min and serum was frozen at −20 °C until further use. Red blood cell lysis was performed and the remaining PBMCs were counted using a Neubauer chamber. Viral titers in PBMCs were quantified in quadruplicates using limited dilution method and calculated as TCID50/10^6 PBMCs. Neutralizing antibody titers were quantified by incubating MeV with 2-fold serial dilutions of the respective serum for 20 min at room temperature in quadruplicates. Vero/hSLAM cells were added and incubated for 3 days at 37 °C. Neutralizing antibody titers are expressed as the reciprocal of the highest serum dilution showing no signs of infection. For virus titration from throat swabs, swabs were placed in 150 μl DMEM with 3% penicillin/streptomycin and the titer was quantified by limited dilution method.

[2] = test system: MeV N gene RNA; assay: Quantitative RT-PCR of MeV N RNA in PBMCs; assay type: in vivo
Description: Organs (21 days post-infection) and PBMCs (twice a week) were frozen in RNAlater (Qiagen) at −80 °C until further processing. For the deceased animal, organs were frozen in RNAlater at the day of death. Lymph nodes were thawed on ice, transferred to TRIzol (ambion life technologies) and homogenized using a tissue homogenizer. Total RNA of lymph nodes and PBMCs was extracted following the TRIzol manufacturer’s protocol. RNA (1000 ng for lymph nodes; 110 ng for PBMCs) was then subjected to reverse transcription using random hexamer primers and Superscript III reverse transcriptase in accordance with the manufacturer’s protocols. Subsequent quantitative PCR (qPCR) was carried out using primer pairs specific for a fragment in the MeV N gene[23] or GAPDH gene(Supplementary Table 2) and the PowerUp SYBR Green Master Mix (Thermo Fisher Scientific) in an Applied Biosystems 7500 Real-Time PCR system. Samples were normalized for GAPDH. The comparative (ΔΔCt) Ct method was applied to determine relative amounts of N-encoding RNA present in samples from treated animals compared to those obtained from untreated control animals (lymph nodes) or compared to those obtained from untreated control animals on day 7 post-infection (peak PBMC virus titer).

With `Cn1nc(C(F)(F)F)cc1C(=O)Nc1ccc(S(=O)(=O)N2CCCC[C@H]2CCN2CCOCC2)cc1` [ERDRP-0519] the “neutralizing antibody titer, dilution factor [1/dilution]” value (shortened to “neutralizing antibody titer”) ([1]; prophylactic group, day 0, individual animals) was 10 1/dilution, the “neutralizing antibody titer” value ([1]; prophylactic group, day 3, individual animals) was 10 1/dilution and the “neutralizing antibody titer” value ([1]; prophylactic group, day 7, individual animals) was 10 1/dilution. The “neutralizing antibody titer” value ([1]; prophylactic group, day 10, individual animals) was 10 1/dilution, the “neutralizing antibody titer” value ([1]; prophylactic group, day 14, individual animals) was 10 1/dilution (3×) and 80 1/dilution and 15 1/dilution and 30 1/dilution and the “neutralizing antibody titer” value ([1]; prophylactic group, day 17, individual animals) was 160 1/dilution and 240 1/dilution and 10 1/dilution (3×) and 17.5 1/dilution. The “neutralizing antibody titer” value ([1]; prophylactic group, day 21, individual animals) was 640 1/dilution and 200 1/dilution and 120 1/dilution and 10 1/dilution (2×) and 35 1/dilution, the “neutralizing antibody titer” value ([1]; therapeutic (d3) group, day 0, individual animals) was 10 1/dilution and the “neutralizing antibody titer” value ([1]; therapeutic (d3) group, day 3, individual animals) was 10 1/dilution. The “neutralizing antibody titer” value ([1]; therapeutic (d3) group, day 7, individual animals) was 10 1/dilution, the “neutralizing antibody titer” value ([1]; therapeutic (d3) group, day 10, individual animals) was 25 1/dilution and 10 1/dilution (2×) and 12.5 1/dilution and the “neutralizing antibody titer” value ([1]; therapeutic (d3) group, day 14, individual animals) was 800 1/dilution and 35 1/dilution and 10 1/dilution and 280 1/dilution and 400 1/dilution and 70 1/dilution. For the same compound, the “neutralizing antibody titer” value ([1]; therapeutic (d3) group, day 17, individual animals) was 200 1/dilution (2×) and 30 1/dilution and 240 1/dilution and 80 1/dilution, the “neutralizing antibody titer” value ([1]; therapeutic (d3) group, day 21, individual animals) was 320 1/dilution (2×) and 70 1/dilution and 140 1/dilution and 120 1/dilution and the “neutralizing antibody titer” value ([1]; therapeutic (d7) group, day 0, individual animals) was 10 1/dilution. For the same compound, the “neutralizing antibody titer” value ([1]; therapeutic (d7) group, day 3, individual animals) was 10 1/dilution (5×) and 12.5 1/dilution, the “neutralizing antibody titer” value ([1]; therapeutic (d7) group, day 7, individual animals) was 10 1/dilution (5×) and 15 1/dilution and the “neutralizing antibody titer” value ([1]; therapeutic (d7) group, day 10, individual animals) was 20 1/dilution and 12.5 1/dilution. For the same compound, the “Supp. Figure 3a, relative MeV N RNA in PBMCs, group mean (Mean 2)” value (“Supp. Figure 3a, relative MeV N RNA” below) ([2]; prophylactic, Day 0) was -12.26, the “Supp. Figure 3a, relative MeV N RNA” value ([2]; prophylactic, Day 3) was -12.06 and the “Supp. Figure 3a, relative MeV N RNA” value ([2]; prophylactic, Day 7) was -11.48. The “Supp. Figure 3a, relative MeV N RNA” value ([2]; prophylactic, Day 10) was -12.34, the “Supp. Figure 3a, relative MeV N RNA” value ([2]; prophylactic, Day 14) was -13.16 and the “Supp. Figure 3a, relative MeV N RNA” value ([2]; prophylactic, Day 17) was -11.47. The “Supp. Figure 3a, relative MeV N RNA” value ([2]; prophylactic, Day 21) was -10.12, the “Supplemental Figure 3a source data, relative MeV N RNA in PBMCs, individual animals” value ([2]; prophylactic, time (d) 0) was -12.3202 and -6.433 and -10.4614 and -17.6101 and -12.9356 and -13.7878 and the “Supplemental Figure 3a source data, relative MeV N RNA in PBMCs, individual animals” value ([2]; prophylactic, time (d) 3) was -12.847 and -12.9062 and -10.7172 and -12.2727 and -12.1274 and -11.494. For the same compound, the “Supplemental Figure 3a source data, relative MeV N RNA in PBMCs, individual animals” value ([2]; prophylactic, time (d) 7) was -12.6218 and -9.583 and -12.0312 and -12.5732 and -12.8193 and -9.245, the “Supplemental Figure 3a source data, relative MeV N RNA in PBMCs, individual animals” value ([2]; prophylactic, time (d) 10) was -9.991 and -12.9071 and -11.8528 and -13.7115 and -14.2547 and -11.2939 and the “Supplemental Figure 3a source data, relative MeV N RNA in PBMCs, individual animals” value ([2]; prophylactic, time (d) 14) was -12.3346 and -10.7326 and -10.4158 and -12.9517 and -16.1088 and -16.4382. For the same compound, the “Supplemental Figure 3a source data, relative MeV N RNA in PBMCs, individual animals” value ([2]; prophylactic, time (d) 17) was -14.0262 and -7.645 and -8.833 and -10.0876 and -14.1769 and -14.0235, the “Supplemental Figure 3a source data, relative MeV N RNA in PBMCs, individual animals” value ([2]; prophylactic, time (d) 21) was -13.9134 and -10.311 and -12.0659 and -11.4656 and -0.8977 and -12.0848 and the “Supp. Figure 3a, relative MeV N RNA” value ([2]; therapeutic (d3), Day 0) was -13.2. For the same compound, the “Supp. Figure 3a, relative MeV N RNA” value ([2]; therapeutic (d3), Day 3) was -12.07, the “Supp. Figure 3a, relative MeV N RNA” value ([2]; therapeutic (d3), Day 7) was -9.205 and the “Supp. Figure 3a, relative MeV N RNA” value ([2]; therapeutic (d3), Day 10) was -9.289. For the same compound, the “Supp. Figure 3a, relative MeV N RNA” value ([2]; therapeutic (d3), Day 14) was -11.53, the “Supp. Figure 3a, relative MeV N RNA” value ([2]; therapeutic (d3), Day 17) was -11.67 and the “Supp. Figure 3a, relative MeV N RNA” value ([2]; therapeutic (d3), Day 21) was -13.06.
